A short description of the data set: CHI Log D procedure. Format: physicochemical. The conditions noted are these: for chromatographic logD: pH 7.4, CHI Log D; for CHI Log D: pH 7.4.

The structures appear in SMILES notation.

As for `CCCC[C@@H]1NC(=O)[C@H](CC(=O)O)NC(=O)[C@](C)(NC(=O)[C@H](C)NC(=O)[C@H](CC(=O)O)NC(=O)[C@H](Cc2ccccc2)NC(C)=O)CCCCCCC=CCOC(=O)N2CC[C@@](C(=O)N[C@@H](Cc3ccccc3)C(=O)N[C@@H](Cc3c[nH]c4ccccc34)C(=O)N[C@@H](CCC(N)=O)C(N)=O)(C2)NC(=O)[C@H](C(C)C)NC(=O)[C@H](Cc2ccccc2)NC(=O)[C@H](C)NC(=O)[C@H](C)NC1=O` (single isomer, unassigned) [I-13, Ac-Phe-Asp-Ala-R8-Asp-nLeu-Ala-Ala-Phe-Val-PyrS-Phe-Trp-Gln-NH2], the chromatographic logD came to 2.01. On the same count and under the same terms, under `CC(=O)N[C@@H](Cc1ccccc1)C(=O)N[C@@H](CC(=O)O)C(=O)N[C@@H](C)C(=O)N[C@]1(C)CCCCCCC=CCOC(=O)N2CC[C@@](C(=O)N[C@@H](Cc3ccccc3)C(=O)N[C@@H](Cc3c[nH]c4ccccc34)C(=O)N[C@@H](CCC(N)=O)C(N)=O)(C2)NC(=O)[C@H](C(C)C)NC(=O)[C@H](Cc2ccccc2)NC(=O)[C@H](C)NC(=O)[C@H](C)NC(=O)[C@H](CC2CCCCC2)NC(=O)[C@H](CC(=O)O)NC1=O` (single isomer, unassigned) [I-15, Ac-Phe-Asp-Ala-R8-Asp-Cha-Ala-Ala-Phe-Val-PyrS-Phe-Trp-Gln-NH2] stands 2.21. With `CC(=O)N[C@@H](Cc1ccccc1)C(=O)N[C@@H](CC(=O)O)C(=O)N[C@@H](C)C(=O)N[C@]1(C)CCCCCCC=CCOC(=O)N2CC[C@@](C(=O)N[C@@H](Cc3ccccc3)C(=O)N[C@@H](Cc3c[nH]c4ccccc34)C(=O)N[C@@H](CCC(N)=O)C(N)=O)(C2)NC(=O)[C@H](C(C)C)NC(=O)[C@H](Cc2ccccc2)NC(=O)[C@H](C)NC(=O)[C@H](C)NC(=O)[C@H](CC2CCCCC2)NC(=O)[C@H](CC(=O)O)NC1=O` (single isomer, unassigned) [I-16, Ac-Phe-Asp-Ala-R8-Asp-Cha-Ala-Ala-Phe-Val-PyrS-Phe-Trp-Gln-NH2], the “CHI Log D” value stood at 2.21. In turn, `CC(=O)N[C@@H](Cc1ccccc1)C(=O)N[C@@H](CC(=O)O)C(=O)N[C@@H](C)C(=O)N[C@]1(C)CCCCCCC=CCOC(=O)N2CC[C@@](C(=O)N[C@@H](Cc3ccccc3)C(=O)N[C@@H](Cc3c[nH]c4ccccc34)C(=O)N[C@@H](CCC(N)=O)C(N)=O)(C2)NC(=O)[C@H](C(C)C)NC(=O)[C@H](Cc2ccccc2)NC(=O)[C@H](C)NC(=O)[C@H](C)NC(=O)[C@H](CCC(C)C)NC(=O)[C@H](CC(=O)O)NC1=O` (single isomer, unassigned) [I-17, Ac-Phe-Asp-Ala-R8-Asp-hLeu-Ala-Ala-Phe-Val-PyrS-Phe-Trp-Gln-NH2] yielded a chromatographic logD of 2.1. As for `CC(=O)N[C@@H](Cc1ccccc1)C(=O)N[C@@H](CC(=O)O)C(=O)N[C@@H](C)C(=O)N[C@]1(C)CCCCCCC=CCOC(=O)N2CC[C@@](C(=O)N[C@@H](Cc3ccccc3)C(=O)N[C@@H](Cc3c[nH]c4ccccc34)C(=O)N[C@@H](CCC(N)=O)C(N)=O)(C2)NC(=O)[C@H](C(C)C)NC(=O)[C@H](Cc2ccccc2)NC(=O)[C@H](C)NC(=O)[C@H](C)NC(=O)[C@H](CCC(C)C)NC(=O)[C@H](CC(=O)O)NC1=O` (single isomer, unassigned) [I-18, Ac-Phe-Asp-Ala-R8-Asp-hLeu-Ala-Ala-Phe-Val-PyrS-Phe-Trp-Gln-NH2], the “CHI Log D” value is 2.108. `CC(=O)N[C@@H](Cc1ccccc1)C(=O)N[C@@H](CC(=O)O)C(=O)N[C@@H](C)C(=O)N[C@]1(C)CCCCCCC=CCOC(=O)N2CC[C@@](C(=O)N[C@@H](Cc3ccccc3)C(=O)N[C@@H](Cc3c[nH]c4ccccc34)C(=O)N[C@@H](CCC(N)=O)C(N)=O)(C2)NC(=O)[C@H](C(C)C)NC(=O)[C@H](Cc2ccccc2)NC(=O)[C@H](CC(=O)O)NC(=O)[C@H](C)NC(=O)[C@H](CC(=O)O)NC(=O)[C@H](CC(=O)O)NC1=O` (single isomer, unassigned) [I-19, Ac-Phe-Asp-Ala-R8-Asp-Asp-Ala-Asp-Phe-Val-PyrS-Phe-Trp-Gln-NH2] came in with a chromatographic logD of 0.948. As for `CC(=O)N[C@@H](Cc1ccccc1)C(=O)N[C@@H](CC(=O)O)C(=O)N[C@@H](C)C(=O)N[C@]1(C)CCCCCCC=CCOC(=O)N2CC[C@@](C(=O)N[C@@H](Cc3ccccc3)C(=O)N[C@@H](Cc3c[nH]c4ccccc34)C(=O)N[C@@H](CCC(N)=O)C(N)=O)(C2)NC(=O)[C@H](C(C)C)NC(=O)[C@H](Cc2ccccc2)NC(=O)[C@H](CC(=O)O)NC(=O)[C@H](C)NC(=O)[C@H](CC(=O)O)NC(=O)[C@H](CC(=O)O)NC1=O` (single isomer, unassigned) [I-20, Ac-Phe-Asp-Ala-R8-Asp-Asp-Ala-Asp-Phe-Val-PyrS-Phe-Trp-Gln-NH2], the “CHI Log D” value was found to be 0.935. In turn, `CC(=O)N[C@@H](Cc1ccccc1)C(=O)N[C@@H](CC(=O)O)C(=O)N[C@@H](C)C(=O)N[C@]1(C)CCCCCCC=CCOC(=O)N2CC[C@@](C(=O)N[C@@H](Cc3ccccc3)C(=O)N[C@@H](Cc3c[nH]c4ccccc34)C(=O)N[C@@H](CCC(N)=O)C(N)=O)(C2)NC(=O)[C@H](C(C)C)NC(=O)[C@H](Cc2ccccc2)NC(=O)[C@H](CCC(=O)O)NC(=O)[C@H](C)NC(=O)[C@H](CC(=O)O)NC(=O)[C@H](CC(=O)O)NC1=O` (single isomer, unassigned) [I-21, Ac-Phe-Asp-Ala-R8-Asp-Asp-Ala-Glu-Phe-Val-PyrS-Phe-Trp-Gln-NH2] displayed a chromatographic logD of 0.92. As to `CC(=O)N[C@@H](Cc1ccccc1)C(=O)N[C@@H](CC(=O)O)C(=O)N[C@@H](C)C(=O)N[C@]1(C)CCCCCCC=CCOC(=O)N2CC[C@@](C(=O)N[C@@H](Cc3ccccc3)C(=O)N[C@@H](Cc3c[nH]c4ccccc34)C(=O)N[C@@H](CCC(N)=O)C(N)=O)(C2)NC(=O)[C@H](C(C)C)NC(=O)[C@H](Cc2ccccc2)NC(=O)[C@H](CCC(=O)O)NC(=O)[C@H](C)NC(=O)[C@H](CC(=O)O)NC(=O)[C@H](CC(=O)O)NC1=O` (single isomer, unassigned) [I-22, Ac-Phe-Asp-Ala-R8-Asp-Asp-Ala-Glu-Phe-Val-PyrS-Phe-Trp-Gln-NH2], the “CHI Log D” value was 0.911. `CC(=O)N[C@@H](Cc1ccccc1)C(=O)N[C@@H](CC(=O)O)C(=O)N[C@@H](C)C(=O)N[C@]1(C)CCCN(C)C(=O)OCC=CCCCC[C@@](C)(C(=O)N[C@@H](Cc2ccccc2)C(=O)N[C@@H](Cc2c[nH]c3ccccc23)C(=O)N[C@@H](CCC(N)=O)C(N)=O)NC(=O)[C@H](C(C)C)NC(=O)[C@H](Cc2ccccc2)NC(=O)[C@H](C)NC(=O)[C@H](C)NC(=O)[C@H](CC(=O)O)NC(=O)[C@H](CC(=O)O)NC1=O` (single isomer, unassigned) [I-29, Ac-Phe-Asp-Ala-ReN-Asp-Asp-Ala-Ala-Phe-Val-S6-Phe-Trp-Gln-NH2]: the chromatographic logD was determined as 1.6.

As to `CC(=O)N[C@@H](Cc1ccccc1)C(=O)N[C@@H](CC(=O)O)C(=O)N[C@@H](C)C(=O)N[C@]1(C)CCCCCCC=CCOC(=O)N2CC(C(=O)N[C@@H](Cc3ccccc3)C(=O)N[C@@H](Cc3c[nH]c4ccccc34)C(=O)N[C@@H](CCC(N)=O)C(N)=O)(C2)NC(=O)[C@H](C(C)C)NC(=O)[C@H](Cc2ccccc2)NC(=O)[C@H](C)NC(=O)[C@H](C)NC(=O)[C@H](CC(=O)O)NC(=O)[C@H](CC(=O)O)NC1=O` (single isomer, unassigned) [I-39, Ac-Phe-Asp-Ala-R8-Asp-Asp-Ala-Ala-Phe-Val-Az-Phe-Trp-Gln-NH2], the chromatographic logD is 1.26. `CC(=O)N[C@@H](Cc1ccccc1)C(=O)N[C@@H](CC(=O)O)C(=O)N[C@@H](C)C(=O)N[C@]1(C)CCCCCCC=CCOC(=O)N2CC(C(=O)N[C@@H](Cc3ccccc3)C(=O)N[C@@H](Cc3c[nH]c4ccccc34)C(=O)N[C@@H](CCC(N)=O)C(N)=O)(C2)NC(=O)[C@H](C(C)C)NC(=O)[C@H](Cc2ccccc2)NC(=O)[C@H](C)NC(=O)[C@H](C)NC(=O)[C@H](CC(=O)O)NC(=O)[C@H](CC(=O)O)NC1=O` (single isomer, unassigned) [I-40, Ac-Phe-Asp-Ala-R8-Asp-Asp-Ala-Ala-Phe-Val-Az-Phe-Trp-Gln-NH2]: the “CHI Log D” value came to 1.243. In the case of `CC(=O)N[C@@H](Cc1ccccc1)C(=O)N[C@@H](CC(=O)O)C(=O)N[C@@H](C)C(=O)N[C@]1(C)CCN(C)C(=O)OCC=CCC[C@@](C)(C(=O)N[C@@H](Cc2ccccc2)C(=O)N[C@@H](Cc2c[nH]c3ccccc23)C(=O)N[C@@H](CCC(N)=O)C(N)=O)NC(=O)[C@H](C(C)C)NC(=O)[C@H](Cc2ccccc2)NC(=O)[C@H](C)NC(=O)[C@H](C)NC(=O)[C@H](CC(=O)O)NC(=O)[C@H](CC(=O)O)NC1=O` (single isomer, unassigned) [I-41, Ac-Phe-Asp-Ala-RdN-Asp-Asp-Ala-Ala-Phe-Val-S4-Phe-Trp-Gln-NH2], the chromatographic logD was 1.09.

As to `CC(=O)N[C@@H](Cc1ccccc1)C(=O)N[C@@H](CC(=O)O)C(=O)N[C@@H](C)C(=O)N[C@]1(C)CN(C)C(=O)OCC=CCCCCCC[C@@](C)(C(=O)N[C@@H](Cc2ccccc2)C(=O)N[C@@H](Cc2c[nH]c3ccccc23)C(=O)N[C@@H](CCC(N)=O)C(N)=O)NC(=O)[C@H](C(C)C)NC(=O)[C@H](Cc2ccccc2)NC(=O)[C@H](C)NC(=O)[C@H](C)NC(=O)[C@H](CC(=O)O)NC(=O)[C@H](CC(=O)O)NC1=O` (single isomer, unassigned) [I-43, Ac-Phe-Asp-Ala-RgN-Asp-Asp-Ala-Ala-Phe-Val-S8-Phe-Trp-Gln-NH2], the chromatographic logD is 1.31. For the compound `CC(=O)N[C@@H](Cc1ccccc1)C(=O)N[C@@H](CC(=O)O)C(=O)N[C@@H](C)C(=O)N[C@]1(C)CN(C)C(=O)OCC=CCCCCCC[C@@](C)(C(=O)N[C@@H](Cc2ccccc2)C(=O)N[C@@H](Cc2c[nH]c3ccccc23)C(=O)N[C@@H](CCC(N)=O)C(N)=O)NC(=O)[C@H](C(C)C)NC(=O)[C@H](Cc2ccccc2)NC(=O)[C@H](C)NC(=O)[C@H](C)NC(=O)[C@H](CC(=O)O)NC(=O)[C@H](CC(=O)O)NC1=O` (single isomer, unassigned) [I-44, Ac-Phe-Asp-Ala-RgN-Asp-Asp-Ala-Ala-Phe-Val-S8-Phe-Trp-Gln-NH2], the “CHI Log D” value came to 1.312. As for `CC(=O)N[C@@H](Cc1ccccc1)C(=O)N[C@@H](CC(=O)O)C(=O)N[C@@H](C)C(=O)N[C@]1(C)CN(C)C(=O)OCC=CCCCCC[C@@](C)(C(=O)N[C@@H](Cc2ccccc2)C(=O)N[C@@H](Cc2c[nH]c3ccccc23)C(=O)N[C@@H](CCC(N)=O)C(N)=O)NC(=O)[C@H](C(C)C)NC(=O)[C@H](Cc2ccccc2)NC(=O)[C@H](C)NC(=O)[C@H](C)NC(=O)[C@H](CC(=O)O)NC(=O)[C@H](CC(=O)O)NC1=O` (single isomer, unassigned) [I-45, Ac-Phe-Asp-Ala-RgN-Asp-Asp-Ala-Ala-Phe-Val-S7-Phe-Trp-Gln-NH2], the chromatographic logD amounted to 1.21.
